We go through six molecules from patent US6627646B2 (Sepracor Inc., priority 2001, dated 2003).

Assay in the first data set: not given
To be noted: factor between polymorphs; cited from earlier work.
Consider `CCCCCCCCCCCCCCCC(=O)OC[C@@H](NC(=O)C(Cl)Cl)[C@H](O)c1ccc([N+](=O)[O-])cc1` [Chloramphenicol-3-palmitate], for which the “difference in bio-activity between form A and form B” value is given as “eight”.

The nature of the next data set: XRPD (Rietveld) polymorph determination of samples made by literature processes. To be noted: samples generated following referenced literature procedures; validated XRPD method. Type of data set: physicochemical. The text has this: A Rietveld analysis was developed that allowed quantitative determination of Form B in Form A down to a detection limit at 5%. Upon analysis, it became apparent that the desired polymorph, in any reasonable degree of purity, could not be produced by the known procedures, and indeed, even a specific ratio of polymorphs was not consistently produced by the known procedures. As discussed above, such a situation is highly undesirable from both a medical and a regulatory standpoint.
All prior processes for producing norastemizole free base, described in art known to the applicants, were examined. The samples were generated following the referenced procedures and were tested using the validated XRPD method.
On to `Fc1ccc(Cn2c(NC3CCNCC3)nc3ccccc32)cc1` [R1632-7A], for which the “Polymorph Results, % Form B” value amounted to 86%.
The same measure, in the same setting: under `Fc1ccc(Cn2c(NC3CCNCC3)nc3ccccc32)cc1` [H1632-30A] stands 100%; under `Fc1ccc(Cn2c(NC3CCNCC3)nc3ccccc32)cc1` [H1632-4A], 91%.
As to `Fc1ccc(Cn2c(NC3CCNCC3)nc3ccccc32)cc1` [H1632-6A], the “Polymorph Results, % Form B” value was determined as 100%.
Same read-out and setting: under `Fc1ccc(Cn2c(NC3CCNCC3)nc3ccccc32)cc1` [H1632-5A] stands 90%.
